US20230071672A1, “PRESERVING FLUOROPHORE FUNCTION” (Lions VisionGift, priority 2021, published 2023)

How the values were obtained:
[1] = stored over night at 4° C., or frozen and thawed; cited from earlier work
[2] = system: corneas; assay: Staining of corneas for 15 minutes and fluorescence microscopy imaging after storage of the stain; type: cell-based
Experimental: Calcein AM (2.5 μg/mL) was prepared with 1.7% sodium hyaluronic acid in a balanced salt solution. Three corneas were stained for 15 minutes and imaged under the same conditions. The cornea shown in FIG. 1A was stained with the mixture immediately after preparation. The cornea shown in FIG. 1B was stained with the mixture after the mixture had been stored frozen for 5 days. The cornea shown in FIG. 1C was stained with the mixture after the mixture had been stored frozen for 3 months.
Calcein-AM (2.5 μg/mL) was prepared according to manufacturer's recommendations. All corneas were stained for 15 minutes and imaged under the same conditions.

[3] = in water and alcohol; cited from earlier work

- fluorescence signal after storage ([2]; three months' storage under 4° C. refrigeration, FIG. 2E): completely lost
Substance: calcein AM
- functionality after storage [1]: lose functionality
- fluorescence signal with storage time ([2]; stored under 4° C. refrigeration, protected from light, overnight, five days, one month, three months, FIGS. 2B-2E): loses intensity with the storage time length
- solubility [3]: only slightly soluble
